# Assay results taken from US20100105098A1, “Methods of Identifying Disease Biomarkers in the Lense of the Eye” (priority 2006, published 2010).
# What was measured:
# cultured lens = conditions: bolus of 250 μM H2O2, incubated for 24 hrs
# Experimental: FIG. 26: Cultured lens exposed to a bolus of 250 μM H2O2 incubated for 24 hrs.
# Optimizing sensitivity for Raman. […] In previous in vitro studies Laser probes at 514 nm (82), and 647 nm (34) wavelengths were used for detection and characterization of Aβ-metal complex signature intensities in situ in lenses.
# [1] = in vitro, cited from earlier work
compound,measurement,setting,value
"OO [H2O2, hydrogen peroxide]",light scattering indicative of lens opacification,cultured lens,increases over time
"Aβ1-40: human β-amyloid peptide, 1-40 amino acid form derived from APP",H2O2 produced relative to Aβ1-42 peptides,[1]; human peptides,~50%
"rat Aβ1-40: rat β-amyloid peptide 1-40, lacking two key metal chelating amino acids (DAEFGHDSGFEVRHQKLVFFAEDVGSNKGAIIGLMVGGVV; Amyloid-beta protein 40; UniProt P08592 672-711, looked up, fragment)",H2O2 produced relative to human Aβ1-40,[1]; rat peptides,~20%
